Tests used:
[1] = test system: L. infantum promastigotes; parameters: method as in PMID 27067332; conditions: read-out: L. infantum Promastigote IC50; cited from earlier work
[2] = test system: peritoneal macrophages of Swiss mice; parameters: method as in PMID 21531758; conditions: murine macrophage; cited from earlier work
[3] = test system: intracellular amastigotes of L. infantum; assay: Antiamastigote test, L. infantum in mouse peritoneal macrophages; assay type: cell-based, Leishmania infantum; conditions: CC50 in Macrophages/IC50 in intracellular amastigotes
Procedure: (§1) For the test against intracellular amastigotes of L. amazonensis and L. infantum, resident peritoneal macrophages (swiss mouse) were plated in RPMI (Sigma-Aldrich) at 2 × 10^6/mL (0.4 mL/well) in Lab-Tek eight-chamber slides (Nunc, Roskilde, Denmark) and incubated at 37 °C in 5% CO2 for 1 h. Stationary-phase L. amazonensis and L. infantum promastigotes were added at respective parasite/macrophage ratios of 3:1 and 5:1 for 4 h. After washing three times, pterocarpanquinones 2a-f at various concentrations were added for 72 h. Next, the slides were stained using an Instant Prov hematological dye system (Newprov, Curitiba, Brazil). The number of amastigotes was determined by counting at least 100 macrophages per sample.
(§2) The results were expressed as an infection index (% infected cells×number of amastigotes/total number of macrophages). The 50% inhibitory concentration (IC50) was determined by nonlinear regression analysis in the software GraphPad Prism 5.

[4] = test system: L. braziliensis promastigotes; parameters: method as in PMID 25340550; conditions: read-out: L. braziliensis Promastigote IC50; cited from earlier work
[5] = test system: intracellular amastigotes of L. braziliensis; assay: Antiamastigote test, L. braziliensis in golden hamster macrophages; assay type: cell-based; conditions: CC50 in Macrophages/IC50 in intracellular amastigotes
Procedure: Macrophages of golden hamsters were used in assays against intracellular amastigotes of L. braziliensis due to the natural resistance of mice. Resident macrophages were obtained from the peritoneal cells of golden hamsters after a peritoneal injection of 10 mL of Dulbecco’s Modified Eagle’s medium (DMEM) (Sigma-Aldrich). The peritoneal macrophages were plated onto glass coverslips placed within the wells of a 24-well culture plate and incubated at 37 °C in 5% CO2 for 1 h. After removing the nonadherent cells, the monolayers were infected with stationary-phase L. braziliensis promastigotes at a 5:1 parasite/macrophage ratio for 4 h. The infected macrophages were washed and incubated with several pterocarpanquinone concentrations (0-25 μM) for 72 h. The monolayers were then stained with Giemsa, and at least 100 infected macrophages per sample were counted under optical microscopy.
as §2

[6] = test system: L. amazonensis promastigotes; parameters: method as in PMID 21531758; conditions: read-out: L. amazonensis Promastigote IC50; cited from earlier work
[7] = test system: intracellular amastigotes of L. amazonensis; parameters: method as in PMID 21531758; conditions: read-out: L. amazonensis Amastigote IC50; cited from earlier work
[8] = test system: intracellular amastigotes of L. amazonensis; assay: Antiamastigote test, L. amazonensis in mouse peritoneal macrophages; assay type: cell-based, Leishmania amazonensis; conditions: CC50 in Macrophages/IC50 in intracellular amastigotes
Procedure: as §1, §2

[9] = test system: intracellular amastigotes of L. braziliensis; parameters: method as in PMID 25340550; conditions: read-out: L. braziliensis Amastigote IC50; cited from earlier work
[10] = test system: intracellular amastigotes of L. infantum; parameters: method as in PMID 27067332; conditions: read-out: L. infantum Amastigote IC50; cited from earlier work

O=C1C2=C(C(=O)c3ccccc31)[C@H]1Oc3ccccc3[C@H]1CO2 [LQB-118 (1)]
IC50 [1]: 4.08 µM | CC50 [2]: 18.5 µM | L. infantum SI (Selective Index) [3]: 5.68 | IC50 [4]: 3.4 µM | L. braziliensis SI (Selective Index) [5]: 2.46 | IC50 [6]: 1.73 µM | IC50 [7]: 1.45 µM | L. amazonensis SI (Selective Index) [8]: 12.73 | IC50 [9]: 7.5 µM | IC50 [10]: 3.25 µM
